Experimental data as given in patent US20260042731A1, “(2,4-DICHLOROPHENOXY)ACETIC ACID ANALOGS” (CORTEVA AGRISCIENCE LLC, priority 2022, published 2026).
Read-outs that look alike come from different tables or passages of the source.

What was measured:
[1] = system: Amaranthus rudis (AMATA), tall water hemp; experiment: Postemergence herbicide evaluation, growth of Amaranthus rudis (AMATA); type: in vivo; settings: Amaranthus tuberculatus, post-emergence; for pest or weed control at 280 g/ha: 280 g ae/ha; for pest or weed control at 560 g/ha: 560 g ae/ha
[2] = system: Abutilon theophrasti (ABUTH), velvetleaf; experiment: Postemergence herbicide evaluation, growth of Abutilon theophrasti (ABUTH); type: in vivo; settings: Abutilon theophrasti, post-emergence; for pest or weed control at 280 g/ha: 280 g ae/ha; for pest or weed control at 560 g/ha: 560 g ae/ha
[3] = system: weeds ABUTH, AMATA, AMBEL, CHEAL, ERICA; experiment: Postemergence herbicide evaluation, overall average % weed control (ABUTH, AMATA, AMBEL, CHEAL, ERICA); type: in vivo; settings: post-emergence, read-out: Overall Ave % Weed Control; for pest or weed control at 280 g/ha: 280 g ae/ha
[4] = system: glyphosate resistant Conyza canadensis (L.) (ERICA), horseweed; experiment: Postemergence herbicide evaluation, growth of Conyza canadensis (ERICA); type: in vivo; settings: Erigeron canadensis, post-emergence; for pest or weed control at 280 g/ha: 280 g ae/ha; for pest or weed control at 560 g/ha: 560 g ae/ha
[5] = system: Ambrosia artemisiifolia (AMBEL), common ragweed; experiment: Postemergence herbicide evaluation, growth of Ambrosia artemisiifolia (AMBEL); type: in vivo; settings: Ambrosia artemisiifolia, post-emergence; for pest or weed control at 280 g/ha: 280 g ae/ha; for pest or weed control at 560 g/ha: 560 g ae/ha
[6] = system: Chenopodium album (CHEAL), common lambsquarters; experiment: Postemergence herbicide evaluation, growth of Chenopodium album (CHEAL); type: in vivo; settings: Chenopodium album, post-emergence; for pest or weed control at 280 g/ha: 280 g ae/ha; for pest or weed control at 560 g/ha: 560 g ae/ha
[7] = system: weeds ABUTH, AMATA, AMBEL, CHEAL, ERICA; experiment: Postemergence herbicide evaluation, overall average % weed control across ABUTH, AMATA, AMBEL, CHEAL and ERICA; type: in vivo; settings: post-emergence, average over five weeds, read-out: Overall Ave % Weed Control; for pest or weed control at 560 g/ha: 560 g ae/ha; for pest or weed control at 280 g/ha: 280 g ae/ha
[8] = Volatility of compounds measured by thermogravimetric analysis (TGA); type: physicochemical
[9] = 168 h, 7 DAA, read-out: Ave. AMATA, percent reduction in plant size relative to the untreated control
[10] = 336 h, 14 DAA, percent reduction in plant size vs untreated control, read-out: Ave. AMATA
[11] = 504 h, 21 DAA, percent reduction in plant size vs untreated control, read-out: Ave. AMATA
[12] = 168 h, 7 DAA, read-out: AVE. ABUTH, percent reduction in plant size relative to the untreated control
[13] = 336 h, 14 DAA, percent reduction in plant size vs untreated control, read-out: AVE. ABUTH
[14] = 504 h, 21 DAA, percent reduction in plant size vs untreated control, read-out: AVE. ABUTH
[15] = 168 h, 7 DAA, read-out: Ave. ERICA, percent reduction in plant size relative to the untreated control
[16] = 336 h, 14 DAA, percent reduction in plant size vs untreated control, read-out: Ave. ERICA
[17] = 504 h, 21 DAA, percent reduction in plant size vs untreated control, read-out: Ave. ERICA
[18] = 168 h, 7 DAA, read-out: AVE. AMBEL, percent reduction in plant size relative to the untreated control
[19] = 336 h, 14 DAA, percent reduction in plant size vs untreated control, read-out: AVE. AMBEL
[20] = 504 h, 21 DAA, percent reduction in plant size vs untreated control, read-out: AVE. AMBEL
[21] = 168 h, 7 DAA, read-out: Ave. CHEAL, percent reduction in plant size relative to the untreated control
[22] = 336 h, 14 DAA, percent reduction in plant size vs untreated control, read-out: Ave. CHEAL
[23] = 504 h, 21 DAA, percent reduction in plant size vs untreated control, read-out: Ave. CHEAL
[24] = 168 h, 7 DAA, percent reduction in plant size vs untreated control, read-out: Ave. AMATA
[25] = 168 h, 7 DAA, percent reduction in plant size vs untreated control, read-out: AVE. ABUTH
[26] = 168 h, 7 DAA, percent reduction in plant size vs untreated control, read-out: Ave. ERICA
[27] = 168 h, 7 DAA, percent reduction in plant size vs untreated control, read-out: AVE. AMBEL
[28] = 168 h, 7 DAA, percent reduction in plant size vs untreated control, read-out: Ave. CHEAL

In the case of `COc1ncc(OC(=O)COc2ccc(Cl)cc2Cl)cn1` [Compound E12], the pest or weed control at 280 g/ha [1, 9] is reported as 70%, the pest or weed control at 560 g/ha [1, 9] is reported as 75% and the pest or weed control at 280 g/ha ([1]; 336 h, 14 DAA, read-out: Ave. AMATA, percent reduction in plant size relative to the untreated control) is reported as 80%. The pest or weed control at 560 g/ha [1, 10] was 87.5%, the pest or weed control at 280 g/ha [1, 11] was 70% and the pest or weed control at 560 g/ha [1, 11] was 87.5%. It also gave a pest or weed control at 280 g/ha [2, 12] of 50%, a pest or weed control at 560 g/ha [2, 12] of 50% and a pest or weed control at 280 g/ha ([2]; 336 h, 14 DAA, read-out: AVE. ABUTH, percent reduction in plant size relative to the untreated control) of 60%. For the same compound, the pest or weed control at 560 g/ha [2, 13] was 52.5%, the pest or weed control at 280 g/ha [2, 14] was 65% and the pest or weed control at 560 g/ha [2, 14] was 62.5%. For the same compound, the pest or weed control at 280 g/ha ([3]; 168 h, 7 DAA) was 69.5%, the pest or weed control at 560 g/ha ([3]; 168 h, 560 g ae/ha, 7 DAA) was 73.5% and the pest or weed control at 280 g/ha ([3]; 336 h, 14 DAA) was 79.5%. The pest or weed control at 280 g/ha [4, 15] was 75%, the pest or weed control at 560 g/ha [4, 15] was 85% and the pest or weed control at 280 g/ha ([4]; 336 h, 14 DAA, read-out: Ave. ERICA, percent reduction in plant size relative to the untreated control) was 97.5%. For the same compound, the pest or weed control at 560 g/ha [4, 16] was 100%, the pest or weed control at 280 g/ha [4, 17] was 96.5% and the pest or weed control at 560 g/ha [4, 17] was 100%. For the same compound, the pest or weed control at 280 g/ha [5, 18] was 75%, the pest or weed control at 560 g/ha [5, 18] was 77.5% and the pest or weed control at 280 g/ha ([5]; 336 h, 14 DAA, read-out: AVE. AMBEL, percent reduction in plant size relative to the untreated control) was 70%. It also gave a pest or weed control at 560 g/ha [5, 19] of 90%, a pest or weed control at 280 g/ha [5, 20] of 100% and a pest or weed control at 560 g/ha [5, 20] of 100%. It also gave a pest or weed control at 280 g/ha [6, 21] of 77.5%, a pest or weed control at 560 g/ha [6, 21] of 80% and a pest or weed control at 280 g/ha ([6]; 336 h, 14 DAA, read-out: Ave. CHEAL, percent reduction in plant size relative to the untreated control) of 90%. The pest or weed control at 560 g/ha [6, 22] was 95%, the pest or weed control at 280 g/ha [6, 23] was 87.5% and the pest or weed control at 560 g/ha [6, 23] was 87.5%. The pest or weed control at 560 g/ha ([7]; 336 h, 14 DAA) was 85%, the pest or weed control at 280 g/ha ([7]; 504 h, 21 DAA) was 83.8% and the pest or weed control at 560 g/ha ([7]; 504 h, 21 DAA) was 87.5%. The “TGA Data (rate of weight loss, volatility)” value [8] was 0.04464 µg/min.
Compound `O=C(COc1ccc(Cl)cc1Cl)NOC1CCCCO1` (centres unmarked) [Compound D15] has a pest or weed control at 280 g/ha [1, 24] of 75%, a pest or weed control at 560 g/ha [1, 24] of 85% and a pest or weed control at 280 g/ha [1, 10] of 85%. The pest or weed control at 560 g/ha [1, 10] was 95%, the pest or weed control at 286 g/ha ([1]; 504 h, 286 g ae/ha, 21 DAA, percent reduction in plant size vs untreated control, read-out: Ave. AMATA) was 72.5% and the pest or weed control at 560 g/ha [1, 11] was 97.5%. For the same compound, the pest or weed control at 280 g/ha [2, 25] was 70%, the pest or weed control at 560 g/ha [2, 25] was 80% and the pest or weed control at 280 g/ha [2, 13] was 87.5%. The pest or weed control at 560 g/ha [2, 13] was 94.5%, the pest or weed control at 286 g/ha ([2]; 504 h, 286 g ae/ha, 21 DAA, percent reduction in plant size vs untreated control, read-out: AVE. ABUTH) was 99.5% and the pest or weed control at 560 g/ha [2, 14] was 99.5%. The pest or weed control at 280 g/ha [4, 26] was 72.5%, the pest or weed control at 560 g/ha [4, 26] was 80% and the pest or weed control at 280 g/ha [4, 16] was 97%. It also gave a pest or weed control at 560 g/ha [4, 16] of 95%, a pest or weed control at 286 g/ha ([4]; 504 h, 286 g ae/ha, 21 DAA, percent reduction in plant size vs untreated control, read-out: Ave. ERICA) of 99.5% and a pest or weed control at 560 g/ha [4, 17] of 100%. It also gave a pest or weed control at 280 g/ha [5, 27] of 85%, a pest or weed control at 560 g/ha [5, 27] of 90% and a pest or weed control at 280 g/ha [5, 19] of 82.5%. For the same compound, the pest or weed control at 560 g/ha [5, 19] was 92.5%, the pest or weed control at 286 g/ha ([5]; 504 h, 286 g ae/ha, 21 DAA, percent reduction in plant size vs untreated control, read-out: AVE. AMBEL) was 100% and the pest or weed control at 560 g/ha [5, 20] was 100%. For the same compound, the pest or weed control at 280 g/ha [6, 28] was 77.5%, the pest or weed control at 560 g/ha [6, 28] was 82.5% and the pest or weed control at 280 g/ha [6, 22] was 94%. The pest or weed control at 560 g/ha [6, 22] was 97.5%, the pest or weed control at 286 g/ha ([6]; 504 h, 286 g ae/ha, 21 DAA, percent reduction in plant size vs untreated control, read-out: Ave. CHEAL) was 85% and the pest or weed control at 560 g/ha [6, 23] was 97.5%. The pest or weed control at 280 g/ha ([7]; 168 h, 7 DAA) was 76%, the pest or weed control at 560 g/ha ([7]; 168 h, 7 DAA) was 83.5% and the pest or weed control at 280 g/ha ([7]; 336 h, 14 DAA) was 89.2%. It also gave a pest or weed control at 560 g/ha ([7]; 336 h, 14 DAA) of 94.9%, a pest or weed control at 286 g/ha ([7]; 504 h, 286 g ae/ha, 21 DAA) of 91.3% and a pest or weed control at 560 g/ha ([7]; 504 h, 21 DAA) of 98.9%. For the same compound, the “TGA Data (rate of weight loss, volatility)” value ([8]; value marked *: decomposition of the material was observed) was 6.9* μg/min.
